The values that follow come from PubChem BioAssay (NCI).

Structures are written as SMILES.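 Test compounds were applied to cells in 96-well plates for 48 hours at 5 doses. TGI is the concentration that stops growth completely.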

Test in all cases: growth of human tumour cells (NCI), 48 h
For test [1], the system named is M19-MEL melanoma.
Test [2] has as its system SNB-78 CNS.
For test [3], the system named is SK-MEL-2 melanoma.
In test [4] the test system is SN12C renal.
Test [5] concerns HL-60(TB) leukemia.
Test [6] has as its system TK-10 renal.
Test [7] relates to SNB-75 CNS.
Test [8] deals with IGROV1 ovarian.
The test system of test [9] is ACHN renal.
The subject of test [10] is SK-OV-3 ovarian.

Consider `COc1ccc(C2(Cl)C(Cl)(C(F)(F)F)C2(Cl)C(F)(F)F)cc1` (stereo not given), for which the TGI was determined as 26.5 µM in test [1]; 29.7 µM in test [2]; 27.2 µM in test [3]; 29.2 µM in [4]; 54.9 µM in test [5]; 32 µM in test [6]. Further, the TGI came to 28 µM in test [7], 30.8 µM in test [8], 30.4 µM in test [9] and 31.2 µM in [10].
As for `CC(C)C1=Cc2ccc3c(c2C(=O)C1=O)CCCC3`, the TGI in test [1] is 8.59 µM; in [2], 11.9 µM; in test [3], 18.8 µM; in test [4], 13.1 µM; in [5] it was 1.95 µM; in [6], 6.55 µM. The TGI was 4.76 µM in test [7], 12.1 µM in [8], 7.13 µM in test [9] and 30.5 µM in [10].
Take `CC1(C)C(=O)/C=C\C(=O)C(C)(C)C2=CC=C(O2)C(C)(C)C(=O)C(Br)C(Br)C(=O)C(C)(C)C2=CC=C1O2` (stereo not given): the TGI in test [1] is greater than 100 µM; in test [2], greater than 100 µM; in test [3], greater than 100 µM; in [4], greater than 100 µM; in test [5] it was 18.1 µM; in test [6] it was greater than 100 µM. For the same compound, the TGI in [7] is greater than 80.3 µM; in test [8] it was greater than 85.6 µM; in [9], greater than 46.4 µM; in [10], greater than 100 µM.
In the case of `C=CC12CCCCC1CC(C(=O)OC)=C(O)C2` (stereo not given), the TGI in test [1], in test [2], in [3], in test [4], in [5] and in test [6] was greater than 100 µM throughout. For the same compound, the TGI in [7], in [8], in [9] and in test [10] was greater than 100 µM throughout.
For `COc1cccc(/C=C2\CCC(CN(C)C)C2=O)c1` (stereo not given), the TGI in test [1] was 21.5 µM; in [2], 66.5 µM; in test [3], 26.2 µM; in test [4], 22.8 µM; in test [5], 2.47 µM; in [6] it was 24.3 µM. Besides, the TGI in [7] was 38.2 µM; in [8], 23.4 µM; in test [9] it was 25.5 µM; in test [10], 29.2 µM.
In the case of `CCOC(=O)C1CC(=O)C=C2CCCCC21` (stereo not given), the TGI in test [1], in [2], in test [3], in test [4], in test [5] and in test [6] was greater than 100 µM in each case. For the same compound, the TGI in [7], in test [8], in test [9] and in [10] was greater than 100 µM in each case.
For `O=C(O)c1cnc2c(ccc3[nH]cccc32)c1=O`, the TGI in [1], in [2], in test [3], in test [4], in test [5] and in test [6] was greater than 100 µM each time. Also, the TGI in [7], in test [8], in [9] and in [10] was greater than 100 µM each time.
